Common to all, as to assay: biochemical
Holding throughout (design): KINOMEscan competition binding panel (Eurofins DiscoverX), single concentration, % inhibition
Details in all cases: read-out: 7 at 1 µM % inhibition

For one experiment, the target named is HCK (Homo sapiens, UniProt P08631). The method in brief: (§1)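 KINOMEscan selectivity screen; >400 human kinases; compound at 1 µM, single concentration.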
The next experiment has as its target IGF1R (Homo sapiens, UniProt P08069). The method in brief: as §1
A further experiment deals with IRAK3 (Homo sapiens, UniProt Q9Y616). In outline: as §1
The next experiment has as its target T1, PIP5K2C (Homo sapiens, UniProt Q8TBX8).
T1 construct: gene PIP4K2C
The method in brief: as §1

Another experiment concerns the target T2, SNARK (Homo sapiens, UniProt Q9H093).
T2 construct: gene NUAK2
In outline:
as §1

In another experiment the target is T3, NIM1 (Homo sapiens, UniProt Q8IY84).
T3 construct: gene NIM1K
The method in brief: as §1

Another experiment concerns the target PRKD2 (Homo sapiens, UniProt Q9BZL6). The method in brief: as §1
The target of a further experiment is MYLK2 (Homo sapiens, UniProt Q9H1R3). In outline: as §1
In another experiment the target is CHEK2 (Homo sapiens, UniProt O96017). The method in brief:
as §1

The next experiment has as its target T4, MEK4 (Homo sapiens, UniProt P45985).
T4 construct: gene MAP2K4
In outline:
as §1

The target in a further experiment is T5, PRKR (Homo sapiens, UniProt P19525).
T5 construct: gene EIF2AK2
In outline:
as §1

In the next experiment the target is SRPK2 (Homo sapiens, UniProt P78362). In outline: as §1
In another experiment the target is CLK1 (Homo sapiens, UniProt P49759). In outline:
as §1

Another experiment has as its target ULK3 (Homo sapiens, UniProt Q6PHR2). In outline: as §1
Another experiment addresses WEE1 (Homo sapiens, UniProt P30291). In outline: as §1
The target in the next experiment is T6, YSK1 (Homo sapiens, UniProt O00506).
T6 construct: gene STK25
In outline: as §1

In the next experiment the target is T7, CDC2L1 (Homo sapiens, UniProt P21127).
T7 construct: gene CDK11B
In outline: as §1

The target of the next experiment is T8, LKB1 (Homo sapiens, UniProt Q15831).
T8 construct: gene STK11
The method in brief:
as §1

The target of a further experiment is CAMK1 (Homo sapiens, UniProt Q14012). In outline:
as §1

For the next experiment, the target named is NEK9 (Homo sapiens, UniProt Q8TD19). The method in brief: as §1
The next experiment addresses EPHB6 (Homo sapiens, UniProt O15197). The method in brief:
as §1

A further experiment concerns the target FLT3(ITD,D835V) (Homo sapiens, UniProt P36888, D835V/ITD). In outline:
as §1

A further experiment deals with T9, NDR1 (Homo sapiens, UniProt Q15208).
T9 construct: gene STK38
In outline: as §1

The target of the next experiment is DAPK1 (Homo sapiens, UniProt P53355). The method in brief: as §1

By inhibition is commonly meant the share of the control response that was lost under treatment.

Chain of EPHB6 (O15197 whole entry): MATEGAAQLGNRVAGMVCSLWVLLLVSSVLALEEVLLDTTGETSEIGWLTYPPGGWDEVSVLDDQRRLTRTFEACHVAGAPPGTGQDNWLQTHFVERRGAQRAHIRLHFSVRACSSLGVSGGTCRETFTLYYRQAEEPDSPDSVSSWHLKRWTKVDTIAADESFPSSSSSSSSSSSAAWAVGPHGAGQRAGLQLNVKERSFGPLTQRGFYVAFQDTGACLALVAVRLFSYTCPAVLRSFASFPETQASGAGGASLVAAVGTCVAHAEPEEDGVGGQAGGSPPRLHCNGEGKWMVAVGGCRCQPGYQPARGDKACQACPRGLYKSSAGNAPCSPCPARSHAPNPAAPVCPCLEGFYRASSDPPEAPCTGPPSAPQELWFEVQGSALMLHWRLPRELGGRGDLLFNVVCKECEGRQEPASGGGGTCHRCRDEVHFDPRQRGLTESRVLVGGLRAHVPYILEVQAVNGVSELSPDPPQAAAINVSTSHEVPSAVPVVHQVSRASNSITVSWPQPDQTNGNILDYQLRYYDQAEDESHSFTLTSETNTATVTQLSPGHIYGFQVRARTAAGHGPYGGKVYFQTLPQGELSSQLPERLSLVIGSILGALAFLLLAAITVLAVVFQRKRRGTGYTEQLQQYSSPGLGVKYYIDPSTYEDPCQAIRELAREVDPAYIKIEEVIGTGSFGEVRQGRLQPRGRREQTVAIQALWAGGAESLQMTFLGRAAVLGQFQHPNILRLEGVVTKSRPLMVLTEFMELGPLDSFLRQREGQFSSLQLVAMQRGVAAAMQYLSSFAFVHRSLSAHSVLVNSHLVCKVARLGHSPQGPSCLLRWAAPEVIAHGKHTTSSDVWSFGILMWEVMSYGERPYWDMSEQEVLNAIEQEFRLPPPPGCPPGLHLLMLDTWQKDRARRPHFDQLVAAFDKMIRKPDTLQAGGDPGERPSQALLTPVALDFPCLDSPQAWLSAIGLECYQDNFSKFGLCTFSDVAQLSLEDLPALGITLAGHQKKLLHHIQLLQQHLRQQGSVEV
T9 sequence (Q15208 whole entry): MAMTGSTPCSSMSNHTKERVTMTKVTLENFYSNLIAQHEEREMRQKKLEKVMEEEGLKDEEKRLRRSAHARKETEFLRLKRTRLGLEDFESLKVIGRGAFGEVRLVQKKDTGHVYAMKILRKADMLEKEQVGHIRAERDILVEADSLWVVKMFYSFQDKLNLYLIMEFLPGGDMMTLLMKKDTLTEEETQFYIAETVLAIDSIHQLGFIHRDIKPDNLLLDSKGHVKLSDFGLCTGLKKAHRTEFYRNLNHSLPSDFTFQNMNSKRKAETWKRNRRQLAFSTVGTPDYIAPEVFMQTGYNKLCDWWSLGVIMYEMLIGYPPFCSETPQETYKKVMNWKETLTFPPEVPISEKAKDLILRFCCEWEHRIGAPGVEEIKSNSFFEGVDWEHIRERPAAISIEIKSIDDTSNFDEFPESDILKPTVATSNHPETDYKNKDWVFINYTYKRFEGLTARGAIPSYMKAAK
Chain of DAPK1 (P53355 whole entry): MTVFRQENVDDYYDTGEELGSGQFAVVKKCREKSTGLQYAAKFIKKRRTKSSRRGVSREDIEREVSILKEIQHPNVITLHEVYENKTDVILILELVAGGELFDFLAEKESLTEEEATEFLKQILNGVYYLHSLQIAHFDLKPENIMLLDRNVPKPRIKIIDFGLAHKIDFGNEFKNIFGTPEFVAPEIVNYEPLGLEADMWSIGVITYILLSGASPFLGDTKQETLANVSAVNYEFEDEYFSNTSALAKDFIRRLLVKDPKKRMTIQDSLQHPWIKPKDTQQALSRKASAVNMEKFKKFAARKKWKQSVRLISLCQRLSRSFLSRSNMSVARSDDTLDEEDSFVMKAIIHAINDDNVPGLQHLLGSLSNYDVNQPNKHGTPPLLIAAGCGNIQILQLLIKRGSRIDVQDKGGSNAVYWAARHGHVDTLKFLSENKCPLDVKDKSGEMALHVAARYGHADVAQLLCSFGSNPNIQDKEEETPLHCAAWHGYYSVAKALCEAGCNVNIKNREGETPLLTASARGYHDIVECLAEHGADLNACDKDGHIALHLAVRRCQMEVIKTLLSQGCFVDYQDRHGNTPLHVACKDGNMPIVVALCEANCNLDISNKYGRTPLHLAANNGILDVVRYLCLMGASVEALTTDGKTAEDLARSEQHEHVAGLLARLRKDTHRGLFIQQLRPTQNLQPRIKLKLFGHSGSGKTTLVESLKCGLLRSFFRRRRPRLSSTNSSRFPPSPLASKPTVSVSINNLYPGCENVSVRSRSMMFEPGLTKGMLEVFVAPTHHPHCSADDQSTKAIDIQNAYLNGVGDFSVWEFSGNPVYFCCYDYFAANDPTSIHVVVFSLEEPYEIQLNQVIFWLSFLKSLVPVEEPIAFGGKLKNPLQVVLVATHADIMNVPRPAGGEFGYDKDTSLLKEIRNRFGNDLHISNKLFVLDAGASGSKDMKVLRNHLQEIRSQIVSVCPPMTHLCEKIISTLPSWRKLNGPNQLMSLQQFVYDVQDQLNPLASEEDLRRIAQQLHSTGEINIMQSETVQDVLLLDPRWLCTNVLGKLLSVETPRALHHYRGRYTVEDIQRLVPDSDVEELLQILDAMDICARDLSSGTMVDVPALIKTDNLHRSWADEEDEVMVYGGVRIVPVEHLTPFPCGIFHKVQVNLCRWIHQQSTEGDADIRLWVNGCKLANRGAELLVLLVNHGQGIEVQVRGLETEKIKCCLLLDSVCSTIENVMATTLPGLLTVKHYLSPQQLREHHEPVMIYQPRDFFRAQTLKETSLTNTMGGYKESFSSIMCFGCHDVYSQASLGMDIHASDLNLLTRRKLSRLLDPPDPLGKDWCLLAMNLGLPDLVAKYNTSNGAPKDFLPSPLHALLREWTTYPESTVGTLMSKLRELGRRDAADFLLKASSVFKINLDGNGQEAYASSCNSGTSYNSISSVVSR
Chain of SRPK2 (P78362 whole entry): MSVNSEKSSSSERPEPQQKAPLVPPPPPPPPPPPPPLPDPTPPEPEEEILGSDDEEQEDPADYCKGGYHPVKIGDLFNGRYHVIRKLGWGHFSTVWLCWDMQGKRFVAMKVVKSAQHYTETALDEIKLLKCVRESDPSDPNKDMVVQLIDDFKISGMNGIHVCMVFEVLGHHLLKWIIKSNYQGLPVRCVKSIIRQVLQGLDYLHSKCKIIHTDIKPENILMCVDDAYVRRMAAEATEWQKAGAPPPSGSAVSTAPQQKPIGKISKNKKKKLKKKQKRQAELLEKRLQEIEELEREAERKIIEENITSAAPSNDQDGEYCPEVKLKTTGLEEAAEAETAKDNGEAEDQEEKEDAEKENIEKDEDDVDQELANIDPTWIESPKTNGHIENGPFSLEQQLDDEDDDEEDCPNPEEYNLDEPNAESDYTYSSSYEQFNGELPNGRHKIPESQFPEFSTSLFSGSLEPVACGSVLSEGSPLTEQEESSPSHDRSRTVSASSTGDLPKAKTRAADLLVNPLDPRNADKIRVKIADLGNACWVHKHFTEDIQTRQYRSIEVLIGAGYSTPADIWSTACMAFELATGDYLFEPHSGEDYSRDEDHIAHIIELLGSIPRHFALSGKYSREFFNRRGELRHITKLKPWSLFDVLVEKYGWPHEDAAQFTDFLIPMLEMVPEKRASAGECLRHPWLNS
Chain of IRAK3 (Q9Y616 whole entry): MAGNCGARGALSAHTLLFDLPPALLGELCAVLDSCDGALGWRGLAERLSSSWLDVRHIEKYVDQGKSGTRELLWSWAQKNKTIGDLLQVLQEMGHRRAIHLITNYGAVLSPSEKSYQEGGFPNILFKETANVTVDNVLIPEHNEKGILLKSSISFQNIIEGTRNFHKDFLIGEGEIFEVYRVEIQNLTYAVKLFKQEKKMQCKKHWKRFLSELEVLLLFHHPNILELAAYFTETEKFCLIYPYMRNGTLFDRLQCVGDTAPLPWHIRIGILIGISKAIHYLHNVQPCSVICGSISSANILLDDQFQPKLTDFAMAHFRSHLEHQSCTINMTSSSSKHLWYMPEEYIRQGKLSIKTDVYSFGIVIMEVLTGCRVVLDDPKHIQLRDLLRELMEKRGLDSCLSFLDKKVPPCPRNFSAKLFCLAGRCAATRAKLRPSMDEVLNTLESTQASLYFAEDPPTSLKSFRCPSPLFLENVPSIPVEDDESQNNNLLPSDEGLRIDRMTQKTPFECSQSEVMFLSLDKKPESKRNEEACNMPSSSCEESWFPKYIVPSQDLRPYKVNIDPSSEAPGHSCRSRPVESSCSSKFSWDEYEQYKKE
Chain of CAMK1 (Q14012 whole entry): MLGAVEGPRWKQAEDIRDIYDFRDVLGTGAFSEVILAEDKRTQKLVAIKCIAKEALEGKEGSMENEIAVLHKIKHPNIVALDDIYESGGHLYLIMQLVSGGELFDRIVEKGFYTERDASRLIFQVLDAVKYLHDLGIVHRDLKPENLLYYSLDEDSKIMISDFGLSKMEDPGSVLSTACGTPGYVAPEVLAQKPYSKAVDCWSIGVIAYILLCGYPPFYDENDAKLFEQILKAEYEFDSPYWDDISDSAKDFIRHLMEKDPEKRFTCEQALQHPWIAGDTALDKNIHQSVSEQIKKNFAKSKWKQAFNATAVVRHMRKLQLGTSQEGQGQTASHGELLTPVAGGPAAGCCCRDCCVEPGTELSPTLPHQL
T1 sequence (Q8TBX8 whole entry): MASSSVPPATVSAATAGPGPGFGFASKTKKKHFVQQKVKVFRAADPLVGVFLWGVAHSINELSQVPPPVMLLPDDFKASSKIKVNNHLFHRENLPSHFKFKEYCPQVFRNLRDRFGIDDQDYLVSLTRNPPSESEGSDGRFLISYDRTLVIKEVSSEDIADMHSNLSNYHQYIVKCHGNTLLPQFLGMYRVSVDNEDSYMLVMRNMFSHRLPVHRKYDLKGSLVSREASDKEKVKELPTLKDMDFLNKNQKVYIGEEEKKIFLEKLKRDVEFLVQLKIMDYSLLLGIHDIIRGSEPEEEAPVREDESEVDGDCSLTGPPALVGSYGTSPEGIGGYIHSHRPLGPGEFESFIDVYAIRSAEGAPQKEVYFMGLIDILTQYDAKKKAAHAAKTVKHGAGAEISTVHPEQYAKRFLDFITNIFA

Regarding `CNS(=O)(=O)c1ccc(N(C)C)c(Nc2ncnc3cc(OC)c(OC)cc23)c1` [compound 7, 3-((6,7-dimethoxyquinazolin-4-yl)amino)-4-(dimethylamino)-N-methylbenzenesulfonamide], the inhibition at 1 µM on HCK is 11%; at IGF1R, 0%; at IRAK3, 0%; at PIP5K2C, 0%; on SNARK, 0%; on NIM1, 31%. Besides, the inhibition at 1 µM on PRKD2 is 8%; on MYLK2 it was 0%; on CHEK2 it was 11%; on MEK4, 37%; on PRKR, 0%; on SRPK2, 15%. The inhibition at 1 µM at CLK1 came to 8%; on ULK3 it was 29%; on WEE1, 0%; at YSK1, 5%; at CDC2L1, 0%; on LKB1 it was 0%. Besides, the inhibition at 1 µM on CAMK1 was 0%; at NEK9, 0%; on EPHB6, 15%; at FLT3(ITD,D835V), 34%; at NDR1 it was 0%; at DAPK1 it was 0%.

These data come from publication PMC7180948, “New Insights into 4-Anilinoquinazolines as Inhibitors of Cardiac Troponin I–Interacting Kinase (TNNi3K)” (Molecules, 2020).
